Columns and labels:
Kv1.1 = Kv1.1 (Homo sapiens, UniProt Q09470); experiment: Whole-cell patch-clamp, Kv1.1; format: cell-based
Kv1.3 = Kv1.3 (UniProt P16390); experiment: Whole-cell patch-clamp block of Kv1.3 current; format: cell-based; conditions: for Kd: L929 cells stably expressing mKv1.3 or activated human T cells, fit of normalized peak current to Hill equation
Procedure: The effectiveness of the generated compounds in blocking the Kv1.3 current was assayed on L929 cells stably expressing mKv1.3 or on activated human T cells. The generation of this cell line has been previously described (Grissmer et al. (1995) Mol. Pharmacol. 45: 1227). The cells were grown in Dulbecco's modified Eagle's medium containing 10% fetal calf serum, 2 mM L-glutamine, 1 mM Na^+ pyruvate, 100 units/ml penicillin, 100 μg/ml streptomycin and 250 μg G418 (to keep them under selection pressure). The cells were studied in the whole-cell configuration of the patch-clamp technique. The holding potential in all experiments was −80 mV. Currents were recorded in normal Ringer solution (160 mM NaCl, 4.5 mM KCl, 2 mM CaCl2, 1 mM MgCl2, 10 mM HEPES, pH 7.4, 290-310 mOsm) with an internal pipette solution containing 134 mM KF, 2 mM MgCl2, 10 mM HEPES, 10 mM EGTA (pH 7.2, 290-310 mOsm). If currents exceeded 2 nA 60-80% series resistance compensation was used. 200-ms depolarising pulses to 40 mV were applied every 30 s (Grissmer at al. (1995) Mol. Pharmacol. 45: 1227). Each compound was tested twice at two different concentrations. Kd values were determined by fitting the reduction of the normalized peak current to the Hill equation. […]

[1] = Solubility in aqueous media; format: physicochemical; conditions: judged by whether testable in the cell-based T-cell proliferation assay
Description: (§1) The comparative example 4 was thus considered to lack therapeutically use.
This was unexpected given the lipophilicity of these compounds. The n-butyl fragment in example 2 is considerably more lipophilic than the phenyl group located in the equivalent position of comparative example 4 (fragment hydrophobicity value 2.5 verses 1.9 respectively).

Kv1.2 = Kv1.2 (Homo sapiens, UniProt P16389); experiment: Whole-cell patch-clamp, Kv1.2; format: cell-based
Kv1.2, sequence (P16389 whole entry): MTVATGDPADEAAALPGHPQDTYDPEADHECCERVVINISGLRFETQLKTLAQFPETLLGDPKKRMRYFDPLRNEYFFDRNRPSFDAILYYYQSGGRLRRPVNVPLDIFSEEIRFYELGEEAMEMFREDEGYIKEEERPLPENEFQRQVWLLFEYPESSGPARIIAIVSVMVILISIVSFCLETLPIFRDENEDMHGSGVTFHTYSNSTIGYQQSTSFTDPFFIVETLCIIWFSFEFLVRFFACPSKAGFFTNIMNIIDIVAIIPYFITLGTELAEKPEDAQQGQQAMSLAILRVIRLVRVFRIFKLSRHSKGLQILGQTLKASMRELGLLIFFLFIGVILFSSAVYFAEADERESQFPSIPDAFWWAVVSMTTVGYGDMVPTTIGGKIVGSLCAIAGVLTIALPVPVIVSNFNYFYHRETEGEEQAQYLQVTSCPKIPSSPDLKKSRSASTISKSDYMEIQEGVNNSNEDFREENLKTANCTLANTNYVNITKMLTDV

[2] = tested on: peripheral blood mononuclear cells; experiment: [3H]-Thymidine incorporation assay; format: cell-based, human; conditions: anti-CD3 stimulated PBMC, 48 h; for Normalised [3H]-TdR incorporation: untreated control = 1
Procedure: [^3H]-thymidine incorporation is a widely used test to assay the proliferative activity of human and rodent lymphocytes. As cells divide [^3H]-thymidine will be incorporated into the newly synthesised DNA of the resulting daughter cells. The faster cells grow the more radioactive [^3H]-thymidine will be incorporated. Any compound that inhibits lymphocytes proliferation will reduce the uptake of radioactivity by the cells treated with it compared to the untreated controls.
Example 2 was tested to determine its ability to inhibit [H]-thymidine incorporation. Resting peripheral blood mononuclear cells from healthy volunteers were seeded at 2×10^5 cells per well in medium (RPMI 1640 supplemented 10% fetal calf serum, 2 mM glutamine, 1 mM sodium pyruvate, 1% nonessential amino acids, 100 units/ml penicillin, 100 μg/ml streptomycin and 50 μM β-mercaptoethanol) in flat-bottom 96 well plates (final volume 200 μl). Cells were pre-incubated with the compound of example 2 for 60 min, and were stimulated with 5 ng/ml anti-CD3 Ab) for 48 h. [^3H]-Thymidine (1 μCi per well) was added for the last 6 h. Cells were harvested onto glass fibre filters and radioactivity measured in a scintillation counter. All experiments were done in triplicate.

Stability = format: physicochemical
Description: as §1

Kv1.4 = Kv1.4 (Homo sapiens, UniProt P22459); experiment: Whole-cell patch-clamp, Kv1.4; format: cell-based
Kv1.4, sequence (P22459 whole entry): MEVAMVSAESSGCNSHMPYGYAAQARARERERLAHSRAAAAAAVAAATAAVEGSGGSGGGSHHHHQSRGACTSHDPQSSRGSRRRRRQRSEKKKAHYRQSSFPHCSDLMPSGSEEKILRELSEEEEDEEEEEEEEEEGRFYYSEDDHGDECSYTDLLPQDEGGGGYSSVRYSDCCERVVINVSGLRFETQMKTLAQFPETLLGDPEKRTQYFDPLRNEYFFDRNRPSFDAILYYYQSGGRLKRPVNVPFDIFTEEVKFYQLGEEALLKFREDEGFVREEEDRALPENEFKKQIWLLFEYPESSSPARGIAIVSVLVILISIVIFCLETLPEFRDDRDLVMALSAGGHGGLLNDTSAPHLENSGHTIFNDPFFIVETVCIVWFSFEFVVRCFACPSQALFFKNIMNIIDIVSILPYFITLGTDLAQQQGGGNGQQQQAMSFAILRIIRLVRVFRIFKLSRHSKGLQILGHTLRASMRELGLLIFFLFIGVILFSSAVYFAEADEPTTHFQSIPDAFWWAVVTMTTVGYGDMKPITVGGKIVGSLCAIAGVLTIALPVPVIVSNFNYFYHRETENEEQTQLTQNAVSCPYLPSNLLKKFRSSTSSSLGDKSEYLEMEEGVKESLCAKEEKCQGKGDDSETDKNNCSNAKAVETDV

SKMI = SKMI (Homo sapiens, UniProt P35499); experiment: Whole-cell patch-clamp, SKMI; format: cell-based; conditions: at 10 μM
SKMI, sequence (P35499 whole entry): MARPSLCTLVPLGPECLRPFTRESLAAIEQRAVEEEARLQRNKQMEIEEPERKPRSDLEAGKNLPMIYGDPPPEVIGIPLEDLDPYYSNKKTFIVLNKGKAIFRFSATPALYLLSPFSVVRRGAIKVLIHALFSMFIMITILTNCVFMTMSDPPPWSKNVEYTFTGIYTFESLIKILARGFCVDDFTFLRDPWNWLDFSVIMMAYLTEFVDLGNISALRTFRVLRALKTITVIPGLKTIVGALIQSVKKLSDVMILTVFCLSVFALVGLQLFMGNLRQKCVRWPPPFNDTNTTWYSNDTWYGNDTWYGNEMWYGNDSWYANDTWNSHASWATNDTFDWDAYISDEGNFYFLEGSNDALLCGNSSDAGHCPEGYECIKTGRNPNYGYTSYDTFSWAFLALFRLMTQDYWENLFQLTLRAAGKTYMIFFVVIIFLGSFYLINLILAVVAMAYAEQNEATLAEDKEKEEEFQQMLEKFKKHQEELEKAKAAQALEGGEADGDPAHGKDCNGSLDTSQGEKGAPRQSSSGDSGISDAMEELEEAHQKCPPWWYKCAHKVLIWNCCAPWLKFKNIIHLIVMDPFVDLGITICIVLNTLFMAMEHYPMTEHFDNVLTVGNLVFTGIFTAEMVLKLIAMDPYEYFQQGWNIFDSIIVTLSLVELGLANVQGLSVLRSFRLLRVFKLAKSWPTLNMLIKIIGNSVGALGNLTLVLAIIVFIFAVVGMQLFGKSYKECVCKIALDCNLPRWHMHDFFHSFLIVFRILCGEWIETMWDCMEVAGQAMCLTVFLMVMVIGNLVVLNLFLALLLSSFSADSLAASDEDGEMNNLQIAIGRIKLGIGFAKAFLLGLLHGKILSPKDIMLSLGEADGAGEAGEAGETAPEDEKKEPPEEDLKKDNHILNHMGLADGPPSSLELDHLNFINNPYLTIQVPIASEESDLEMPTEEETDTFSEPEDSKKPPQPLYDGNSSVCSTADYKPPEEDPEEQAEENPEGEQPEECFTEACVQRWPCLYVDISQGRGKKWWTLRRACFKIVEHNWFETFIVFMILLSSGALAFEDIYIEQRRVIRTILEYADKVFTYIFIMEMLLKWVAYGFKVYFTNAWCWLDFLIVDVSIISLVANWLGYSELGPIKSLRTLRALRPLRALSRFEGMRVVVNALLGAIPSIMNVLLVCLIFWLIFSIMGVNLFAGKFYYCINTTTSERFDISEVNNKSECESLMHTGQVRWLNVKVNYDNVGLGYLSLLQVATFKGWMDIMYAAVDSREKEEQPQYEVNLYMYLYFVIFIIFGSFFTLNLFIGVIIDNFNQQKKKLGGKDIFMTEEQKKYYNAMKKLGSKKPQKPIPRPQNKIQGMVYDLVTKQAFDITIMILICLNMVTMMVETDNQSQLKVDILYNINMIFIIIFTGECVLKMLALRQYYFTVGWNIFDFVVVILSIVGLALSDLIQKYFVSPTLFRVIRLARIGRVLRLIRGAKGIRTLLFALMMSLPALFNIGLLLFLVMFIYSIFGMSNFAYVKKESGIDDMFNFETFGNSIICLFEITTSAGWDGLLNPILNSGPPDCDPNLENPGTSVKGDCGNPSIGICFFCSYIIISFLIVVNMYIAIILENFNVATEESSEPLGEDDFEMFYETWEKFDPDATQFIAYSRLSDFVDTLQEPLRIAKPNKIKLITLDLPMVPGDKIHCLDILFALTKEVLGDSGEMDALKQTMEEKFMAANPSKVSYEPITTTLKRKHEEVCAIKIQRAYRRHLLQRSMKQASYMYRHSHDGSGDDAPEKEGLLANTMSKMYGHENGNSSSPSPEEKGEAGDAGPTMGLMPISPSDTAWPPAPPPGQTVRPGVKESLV

IKCa1 = IKCa1 (Homo sapiens, UniProt O15554); experiment: Whole-cell patch-clamp, IKCa1; format: cell-based
Kv1.5 = Kv1.5 (Homo sapiens, UniProt P22460); experiment: Whole-cell patch-clamp, Kv1.5; format: cell-based
Kv1.5, sequence (P22460 whole entry): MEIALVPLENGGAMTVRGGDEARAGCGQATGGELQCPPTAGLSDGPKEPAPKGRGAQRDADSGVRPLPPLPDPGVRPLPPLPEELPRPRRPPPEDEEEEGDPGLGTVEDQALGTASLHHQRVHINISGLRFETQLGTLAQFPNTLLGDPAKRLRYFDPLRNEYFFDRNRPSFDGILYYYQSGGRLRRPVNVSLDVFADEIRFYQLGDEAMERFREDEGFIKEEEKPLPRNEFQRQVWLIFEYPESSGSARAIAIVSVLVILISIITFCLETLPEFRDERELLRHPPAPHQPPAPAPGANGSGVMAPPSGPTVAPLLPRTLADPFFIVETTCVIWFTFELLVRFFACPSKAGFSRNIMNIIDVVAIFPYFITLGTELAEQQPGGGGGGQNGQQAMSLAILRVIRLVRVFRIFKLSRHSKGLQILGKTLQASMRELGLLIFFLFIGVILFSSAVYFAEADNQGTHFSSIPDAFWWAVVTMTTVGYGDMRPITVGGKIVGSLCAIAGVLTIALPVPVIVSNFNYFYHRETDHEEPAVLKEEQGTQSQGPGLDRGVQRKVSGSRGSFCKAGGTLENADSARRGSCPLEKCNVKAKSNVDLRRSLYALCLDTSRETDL

Kv1.1, sequence (Q09470 whole entry): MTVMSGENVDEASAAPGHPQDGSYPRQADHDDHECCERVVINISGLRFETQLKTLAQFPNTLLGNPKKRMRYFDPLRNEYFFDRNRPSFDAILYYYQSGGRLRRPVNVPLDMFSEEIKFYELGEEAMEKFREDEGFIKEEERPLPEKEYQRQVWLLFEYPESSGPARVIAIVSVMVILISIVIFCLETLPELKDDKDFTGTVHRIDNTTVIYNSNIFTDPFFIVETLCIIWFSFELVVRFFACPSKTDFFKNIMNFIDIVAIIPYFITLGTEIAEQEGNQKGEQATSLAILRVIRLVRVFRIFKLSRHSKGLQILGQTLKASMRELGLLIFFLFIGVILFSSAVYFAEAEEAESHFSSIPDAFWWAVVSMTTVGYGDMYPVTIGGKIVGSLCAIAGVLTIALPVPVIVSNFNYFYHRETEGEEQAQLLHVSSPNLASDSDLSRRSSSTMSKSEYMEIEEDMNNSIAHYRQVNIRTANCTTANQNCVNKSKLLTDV

With `COc1c(C(C)=O)c(OCCCCCCOc2c(C(C)=O)c(OC)c3ccoc3c2OC)c(OC)c2occc12` [Example 2] the Kd (Kv1.1) was 0.32 µM, the “Kind of block (Kv1.3)” value (Kv1.3) was “Block phasic” and the Kd (Kv1.3) was 0.68 µM. The “Solubility in aqueous media” value [1] was “soluble enough in aqueous media to be tested”, the Kd (Kv1.2) was 0.25 µM and the “Normalised [3H]-TdR incorporation” value ([2]; 100 nM) was 0.86 +/− 0.04. The “Normalised [3H]-TdR incorporation” value ([2]; 250 nM) was 0.76 +/− 0.06, the “Normalised [3H]-TdR incorporation” value ([2]; 1 μM) was 0.38 +/− 0.05 and the “Normalised [3H]-TdR incorporation” value ([2]; 10 μM) was 0.01 +/− 0.003. It also gave an EC50 ([2]; Homo sapiens, read-out: EC50, inhibition of [3H]-thymidine incorporation) of about 0.8 µM.
For `COc1c(C(C)=O)c(OCc2ccc(COc3c(C(C)=O)c(OC)c4ccoc4c3OC)c(C(=O)O)c2)c(OC)c2occc12` [Example 8, 2,5-Bis(5-acetyl-4,7-dimethoxybenzofuran-6-yloxymethyl)benzoic acid], the Kd (Kv1.3) was 5 µM.
In the case of `COC(=O)c1cc(COc2c(C(C)=O)c(OC)c3ccoc3c2OC)ccc1COc1c(C(C)=O)c(OC)c2ccoc2c1OC` [Example 7, 2,5-Bis(5-acetyl-4,7-dimethoxy-6-benzofuran-6-yloxymethyl)benzoic acid, methyl ester], the melting point is reported as 87 to 89 °C and the Kd (Kv1.3) is reported as 3 µM.
With `COc1c(C(C)=O)c(OCCOCCOc2c(C(C)=O)c(OC)c3ccoc3c2OC)c(OC)c2occc12` [Example 5] the Kd (Kv1.3) was 4 µM and the “Solubility in aqueous media” value [1] was “significantly more soluble in aqueous conditions than comparative example 2”.
Compound `COc1c2occc2cc2ccc(=O)oc12` [Comparative Example 2 (3-MOP)] has a Kd (Kv1.3) of 160 µM.
Compound `COc1c(C(C)=O)c(OCc2cccc(COc3c(C(C)=O)c(OC)c4ccoc4c3OC)c2)c(OC)c2occc12` [compound 5, reference compound] has a Kd (Kv1.3) of 0.56 µM.
For `COc1c(C(C)=O)c(OCCCCCOc2c(C(C)=O)c(OC)c3ccoc3c2OC)c(OC)c2occc12` [Example 1], the Kd (Kv1.3) was 0.82 µM, the “Solubility in aqueous media” value [1] was “soluble enough in aqueous media to be tested” and the Kd (Kv1.2) was 1.5 µM.
Work on `COc1c(C(C)=O)c(O)c(OC)c2occc12` [Comparative Example 1 (Khellinone)] yielded a Kd (Kv1.3) of 70 µM.
`COc1c(C(C)=O)c(OCc2ccccc2COc2c(C(C)=O)c(OC)c3ccoc3c2OC)c(OC)c2occc12` [compound 6, reference compound] gave a Kd (Kv1.3) of 7 µM.
For `COc1c(C(C)=O)c(OCc2ccc(COc3c(C(C)=O)c(OC)c4ccoc4c3OC)cc2)c(OC)c2occc12` [compound 4], the Stability (Stability) was “good stability”, the Kd (Kv1.1) was 3 µM and the Kd (Kv1.4) was 2.2 µM. For the same compound, the “Effect on SKMI” value (SKMI) was “No effect”, the Kd (Kv1.3) was 0.28 µM and the “Solubility in aqueous media” value [1] was “so poorly soluble in aqueous media”. The Kd (Kv1.2) was 5 µM, the Kd (IKCa1) was over 20 µM and the Kd (Kv1.5) was 1.1 µM.
`O=c1ccc2cc3ccoc3c(OCc3ccc(COc4c5occc5cc5ccc(=O)oc45)cc3)c2o1` [compound 3, reference compound] showed a Kd (Kv1.3) of 17 µM.
In the case of `COc1c(C(C)=O)c(OCc2ccc(COc3cc4occc4c(OC)c3C(C)=O)cc2)cc2occc12` [Example 4, 1,4-bis(5-acetyl-4-methoxybenzofuran-6-yloxymethyl)benzene], the Kd (Kv1.3) is reported as 1.1 µM and the “Effect on Kv1.2” value (Kv1.2; at 5 μM) is reported as “No effect”.

— US7507839B2, “Therapeutic ion channel blocking agents and methods of use thereof” (The Walter and Eliza Hall Institute of Medical Research, priority 2002, dated 2009)
